These results are taken from US6770636B2, “Phenyl-and phenylalkyl-substituted ethanolamines and ethylenediamines” (Boehringer Ingelheim Pharma KG, priority 2000, dated 2004).

Structures can show the parent of a compound that is named as a salt. Bounds are passed on as bounds.

Broadly, the melting point is the temperature, or range, at which the solid turns liquid.

Compound `Cc1cccc(C)c1C(C[N+](C)(C)C)OCCCc1c(F)cccc1F.[I-]` (stereo not shown) registered a melting point of 190 °C.
For the compound `Cc1cccc(C)c1C(CN1CCCCC1)OCCCc1c(F)cccc1F` (stereo not shown) (as salt: hydrochloride) [Example 14, 1-[2-[3-(2,6-difluorophenyl)propoxy]-2-(2,6-dimethylphenyl)ethyl]piperidine], the melting point is > 200 °C.
Compound `Cc1cccc(C)c1C(CNCc1ccccc1)OCCCc1c(F)cccc1F` (stereo not shown) (as salt: hydrochloride) [Example 23, N-[2-[3-(2,6-difluorophenyl)propoxy]-2-(2,6-dimethylphenyl)ethyl]-N-benzylamine] gave a melting point of 176 °C.
Take `Cc1cccc(C)c1C(CN(Cc1ccccc1)Cc1ccccc1)OCCCc1c(F)cccc1F` (stereo not shown) (as salt: hydrochloride) [Example 24, N-[2-[3-(2,6-difluorophenyl)propoxy]-2-(2,6-dimethylphenyl)ethyl]-N,N-bis(benzyl)amine]: the melting point was found to be 108 °C.
`C=C(C)C1CC=C(CNCC(OCCCc2c(F)cccc2F)c2c(C)cccc2C)CC1` (stereo not shown) (as salt: hydrochloride) [Example 25, N-[2-[3-(2,6-difluorophenyl)propoxy]-2-(2,6-dimethylphenyl)ethyl]-N-(4-isopropenylcyclohexen-1-ylmethyl)amine] came in with a melting point of 155 °C.
On to `Cc1cccc(C)c1C(CN1CCCCC1)NCCCc1c(F)cccc1F` (stereo not shown) (as salt: hydrochloride) [Example 35, [3-(2,6-difluorophenyl)propyl]-[1-(2,6-dimethylphenyl)-2-piperidin-1-ylethyl]amine], for which the melting point was determined as 145 °C.
With `Cc1cccc(C)c1C(CN1CCCCC1)OCc1ccccc1` (stereo not shown) (as salt: hydrochloride) [Example 38, 1-[2-benzyloxy-2-(2,6-dimethylphenyl)ethyl]piperidine] the figure was 197 to 199 °C; with `Cc1cccc(C)c1C(CN1CCCCC1)OCc1ccc(Br)cc1` (stereo not shown) (as salt: hydrochloride) [Example 39, 1-[2-(4-bromobenzyloxy)-2-(2,6-dimethylphenyl)ethyl]piperidine], 152 to 154 °C.
`Cc1cccc(C)c1C(CN1CCCCC1)OCc1ccc(Cl)cc1` (stereo not shown) (as salt: hydrochloride) [Example 40, 1-[2-(4-chlorobenzyloxy)-2-(2,6-dimethylphenyl)ethyl]piperidine] showed a melting point of 134 to 135 °C.
With `Cc1cccc(C)c1C(CN1CCCCC1)OCc1c(Cl)cccc1Cl` (stereo not shown) (as salt: hydrochloride) [Example 41, 1-[2-(2,6-dichlorobenzyloxy)-2-(2,6-dimethylphenyl)ethyl]piperidine] the figure was 225 to 227 °C; with `Cc1cccc(C)c1C(CN1CCCCC1)OCc1c(F)cccc1F` (stereo not shown) (as salt: hydrochloride) [Example 42, 1-[2-(2,6-difluorobenzyloxy)-2-(2,6-dimethylphenyl)ethyl]piperidine], 183 to 185 °C; with `Cc1cccc(C)c1C(CN1CCCCC1)OCc1ccc(Br)cc1Cl` (stereo not shown) (as salt: hydrochloride) [Example 43, 1-[2-(2-chloro-4-bromobenzyloxy)-2-(2,6-dimethylphenyl)ethyl]piperidine], 222 to 224 °C.
On to `Cc1cccc(C)c1C(CN(C)CC1CC1)OCCCc1c(F)cccc1F` (stereo not shown) [Example 10, N-[2-[3-(2,6-difluorophenyl)propoxy]-2-(2,6-dimethylphenyl)ethyl]-N-cyclopropylmethyl-N-methylamine], for which the melting point is 78 °C.
